Measured values published in patent US20170190671A1, “BIS(ARYL)CATECHOL DERIVATIVES AS HERBICIDES” (E I DU PONT DE NEMOURS AND COMPANY, priority 2014, published 2017).

What was measured:
Format in all cases: in vivo
[1] = test system: oilseed rape (Brassica napus); assay: Test C preemergence; details: Brassica napus, pre-emergence, preemergence, scale 0 to 100, read-out: Plant response rating, Oilseed Rape
In short: (§1)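 Seeds sown in a loam soil and sand blend were treated preemergence; plants in peat-moss/vermiculite medium were sprayed at the 1- to 4-leaf stage (2-18 cm). Chemicals were in a non-phytotoxic surfactant-containing solvent. After 13 to 15 days in a greenhouse, injury was visually rated against controls on a 0-100 scale.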

[2] = test system: blackgrass (Alopecurus myosuroides); assay: Test C preemergence; details: Alopecurus myosuroides, pre-emergence, 336 h, preemergence, scale 0 to 100, read-out: Plant response rating, Blackgrass
In short: as §1

[3] = test system: yellow nutsedge (Cyperus esculentus); assay: Test C preemergence; details: Cyperus, pre-emergence, 336 h, preemergence, scale 0 to 100, read-out: Plant response rating, Nutsedge, Yellow
In short: as §1

[4] = test system: velvetleaf (Abutilon theophrasti); assay: Test C postemergence; details: Abutilon theophrasti, post-emergence, Postemergence, scale 0 to 100, read-out: Plant response rating, Velvetleaf
In short: as §1

[5] = test system: oilseed rape (Brassica napus); assay: Test C postemergence; details: Brassica napus, post-emergence, Postemergence, scale 0 to 100, read-out: Plant response rating, Oilseed Rape
In short: as §1

[6] = test system: blackgrass (Alopecurus myosuroides); assay: Test C postemergence; details: Alopecurus myosuroides, post-emergence, 336 h, Postemergence, scale 0 to 100, read-out: Plant response rating, Blackgrass
In short: as §1

[7] = test system: galium (catchweed bedstraw, Galium aparine); assay: Test C postemergence; details: Galium, post-emergence, 336 h, Postemergence, scale 0 to 100, read-out: Plant response rating, Galium
In short: as §1

[8] = test system: yellow nutsedge (Cyperus esculentus); assay: Test C postemergence; details: Cyperus, post-emergence, 336 h, Postemergence, scale 0 to 100, read-out: Plant response rating, Nutsedge, Yellow
In short: as §1

[9] = test system: chickweed (common chickweed, Stellaria media); assay: Test C postemergence; details: Stellaria media, post-emergence, Postemergence, scale 0 to 100, read-out: Plant response rating, Chickweed
In short: as §1

[10] = test system: giant foxtail (Setaria faberii); assay: Test C postemergence; details: Setaria faberi, post-emergence, 336 h, Postemergence, scale 0 to 100, read-out: Plant response rating, Foxtail, Giant
In short: as §1

[11] = test system: soybean (Glycine max); assay: Test C postemergence; details: Glycine max, post-emergence, Postemergence, scale 0 to 100, read-out: Plant response rating, Soybean
In short: as §1

[12] = test system: morningglory (Ipomoea coccinea); assay: Test C postemergence; details: Ipomoea, post-emergence, 336 h, Postemergence, scale 0 to 100, read-out: Plant response rating, Morningglory
In short: as §1

[13] = test system: Italian ryegrass (Lolium multiflorum); assay: Test C postemergence; details: Lolium multiflorum, post-emergence, 336 h, Postemergence, scale 0 to 100, read-out: Plant response rating, Ryegrass, Italian
In short: as §1

[14] = test system: kochia (Kochia scoparia); assay: Test C postemergence; details: Bassia scoparia, post-emergence, Postemergence, scale 0 to 100, read-out: Plant response rating, Kochia
In short: as §1

[15] = test system: large (Lg) crabgrass (Digitaria sanguinalis); assay: Test C postemergence; details: Digitaria sanguinalis, post-emergence, 336 h, Postemergence, scale 0 to 100, read-out: Plant response rating, Crabgrass, Large
In short: as §1

[16] = test system: winter wheat (Triticum aestivum); assay: Test C postemergence; details: Triticum aestivum, post-emergence, 336 h, Postemergence, scale 0 to 100, read-out: Plant response rating, Wheat
In short: as §1

[17] = test system: ragweed (common ragweed, Ambrosia elatior); assay: Test C postemergence; details: Ambrosia artemisiifolia, post-emergence, 336 h, Postemergence, scale 0 to 100, read-out: Plant response rating, Ragweed
In short: as §1

[18] = test system: barnyardgrass (Echinochloa crus-galli); assay: Test C postemergence; details: Echinochloa crus-galli, post-emergence, Postemergence, scale 0 to 100, read-out: Plant response rating, Barnyardgrass
In short: as §1

[19] = test system: corn (Zea mays); assay: Test C postemergence; details: Zea mays, post-emergence, 336 h, Postemergence, scale 0 to 100
In short: as §1

[20] = test system: wild oat (Avena fatua); assay: Test C postemergence; details: Avena fatua, post-emergence, Postemergence, scale 0 to 100, read-out: Plant response rating, Oat, Wild
In short: as §1

[21] = test system: johnsongrass (Sorghum halepense); assay: Test C postemergence; details: Sorghum halepense, post-emergence, 336 h, Postemergence, scale 0 to 100, read-out: Plant response rating, Johnsongrass
In short: as §1

[22] = test system: lambsquarters (Chenopodium album); assay: Test C postemergence; details: Chenopodium album, post-emergence, 336 h, Postemergence, scale 0 to 100, read-out: Plant response rating, Lambsquarters
In short: as §1

SMILES: Fc1cnc(Oc2c(Br)cccc2Oc2ncc(Cl)cn2)nc1 [Compound 22]
- plant injury at 31 g/ha ([1]; 31 g ai/ha): 85%
- plant injury at 62 g/ha ([1]; 62 g ai/ha): 98%
- plant injury at 125 g/ha ([1]; 125 g ai/ha): 100%
- plant injury at 250 g/ha ([1]; 250 g ai/ha): 100%
- pest or weed control at 31 g/ha ([2]; 31 g ai/ha): 10%
- pest or weed control at 62 g/ha ([2]; 62 g ai/ha): 60%
- pest or weed control at 125 g/ha ([2]; 125 g ai/ha): 90%
- pest or weed control at 31 g/ha ([3]; 31 g ai/ha): 0%
- pest or weed control at 62 g/ha ([3]; 62 g ai/ha): 20%
- pest or weed control at 125 g/ha ([3]; 125 g ai/ha): 60%
- pest or weed control at 31 g/ha ([4]; 31 g ai/ha): 30%
- pest or weed control at 62 g/ha ([4]; 62 g ai/ha): 65%
- pest or weed control at 125 g/ha ([4]; 125 g ai/ha): 70%
- pest or weed control at 250 g/ha ([4]; 250 g ai/ha): 70%
- plant injury at 31 g/ha ([5]; 31 g ai/ha): 40%
- plant injury at 62 g/ha ([5]; 62 g ai/ha): 40%
- plant injury at 125 g/ha ([5]; 125 g ai/ha): 60%
- plant injury at 250 g/ha ([5]; 250 g ai/ha): 35%
- pest or weed control at 31 g/ha ([6]; 31 g ai/ha): 5%
- pest or weed control at 62 g/ha ([6]; 62 g ai/ha): 5%
- pest or weed control at 125 g/ha ([6]; 125 g ai/ha): 5%
- pest or weed control at 250 g/ha ([6]; 250 g ai/ha): 10%
- pest or weed control at 31 g/ha ([7]; 31 g ai/ha): 70%
- pest or weed control at 62 g/ha ([7]; 62 g ai/ha): 90%
- pest or weed control at 125 g/ha ([7]; 125 g ai/ha): 90%
- pest or weed control at 250 g/ha ([7]; 250 g ai/ha): 95%
- pest or weed control at 31 g/ha ([8]; 31 g ai/ha): 5%
- pest or weed control at 62 g/ha ([8]; 62 g ai/ha): 5%
- pest or weed control at 125 g/ha ([8]; 125 g ai/ha): 10%
- pest or weed control at 250 g/ha ([8]; 250 g ai/ha): 10%
- pest or weed control at 31 g/ha ([9]; 31 g ai/ha): 50%
- pest or weed control at 62 g/ha ([9]; 62 g ai/ha): 50%
- pest or weed control at 125 g/ha ([9]; 125 g ai/ha): 55%
- pest or weed control at 250 g/ha ([9]; 250 g ai/ha): 80%
- pest or weed control at 31 g/ha ([10]; 31 g ai/ha): 5%
- pest or weed control at 62 g/ha ([10]; 62 g ai/ha): 5%
- pest or weed control at 125 g/ha ([10]; 125 g ai/ha): 10%
- pest or weed control at 250 g/ha ([10]; 250 g ai/ha): 20%
- plant injury at 31 g/ha ([11]; 31 g ai/ha): 40%
- plant injury at 62 g/ha ([11]; 62 g ai/ha): 75%
- plant injury at 125 g/ha ([11]; 125 g ai/ha): 90%
- plant injury at 250 g/ha ([11]; 250 g ai/ha): 0%
- pest or weed control at 31 g/ha ([12]; 31 g ai/ha): 80%
- pest or weed control at 62 g/ha ([12]; 62 g ai/ha): 70%
- pest or weed control at 125 g/ha ([12]; 125 g ai/ha): 85%
- pest or weed control at 250 g/ha ([12]; 250 g ai/ha): 80%
- pest or weed control at 31 g/ha ([13]; 31 g ai/ha): 0%
- pest or weed control at 62 g/ha ([13]; 62 g ai/ha): 0%
- pest or weed control at 125 g/ha ([13]; 125 g ai/ha): 5%
- pest or weed control at 250 g/ha ([13]; 250 g ai/ha): 5%
- pest or weed control at 31 g/ha ([14]; 31 g ai/ha): 45%
- pest or weed control at 62 g/ha ([14]; 62 g ai/ha): 60%
- pest or weed control at 125 g/ha ([14]; 125 g ai/ha): 85%
- pest or weed control at 250 g/ha ([14]; 250 g ai/ha): 90%
- pest or weed control at 31 g/ha ([15]; 31 g ai/ha): 5%
- pest or weed control at 62 g/ha ([15]; 62 g ai/ha): 15%
- pest or weed control at 125 g/ha ([15]; 125 g ai/ha): 25%
- pest or weed control at 250 g/ha ([15]; 250 g ai/ha): 20%
- plant injury at 31 g/ha ([16]; 31 g ai/ha): 0%
- plant injury at 62 g/ha ([16]; 62 g ai/ha): 0%
- plant injury at 125 g/ha ([16]; 125 g ai/ha): 0%
- plant injury at 250 g/ha ([16]; 250 g ai/ha): 0%
- pest or weed control at 31 g/ha ([17]; 31 g ai/ha): 30%
- pest or weed control at 62 g/ha ([17]; 62 g ai/ha): 35%
- pest or weed control at 125 g/ha ([17]; 125 g ai/ha): 90%
- pest or weed control at 250 g/ha ([17]; 250 g ai/ha): 90%
- pest or weed control at 31 g/ha ([18]; 31 g ai/ha): 5%
- pest or weed control at 62 g/ha ([18]; 62 g ai/ha): 5%
- pest or weed control at 125 g/ha ([18]; 125 g ai/ha): 15%
- pest or weed control at 250 g/ha ([18]; 250 g ai/ha): 10%
- Corn plant response rating (crop injury, 0 = no effect, 100 = complete kill) at 31 g/ha ([19]; 31 g ai/ha): 5%
- Corn plant response rating (crop injury, 0 = no effect, 100 = complete kill) at 62 g/ha ([19]; 62 g ai/ha): 10%
- Corn plant response rating (crop injury, 0 = no effect, 100 = complete kill) at 125 g/ha ([19]; 125 g ai/ha): 10%
- Corn plant response rating (crop injury, 0 = no effect, 100 = complete kill) at 250 g/ha ([19]; 250 g ai/ha): 10%
- pest or weed control at 31 g/ha ([20]; 31 g ai/ha): 0%
- pest or weed control at 62 g/ha ([20]; 62 g ai/ha): 5%
- pest or weed control at 125 g/ha ([20]; 125 g ai/ha): 10%
- pest or weed control at 250 g/ha ([20]; 250 g ai/ha): 15%
- pest or weed control at 31 g/ha ([21]; 31 g ai/ha): 0%
- pest or weed control at 62 g/ha ([21]; 62 g ai/ha): 0%
- pest or weed control at 125 g/ha ([21]; 125 g ai/ha): 5%
- pest or weed control at 250 g/ha ([21]; 250 g ai/ha): 5%
- pest or weed control at 31 g/ha ([22]; 31 g ai/ha): 70%
- pest or weed control at 62 g/ha ([22]; 62 g ai/ha): 75%
- pest or weed control at 125 g/ha ([22]; 125 g ai/ha): 95%
- pest or weed control at 250 g/ha ([22]; 250 g ai/ha): 98%
